Reference: article PMC5766581, “NF-κB inducing kinase is a therapeutic target for systemic lupus erythematosus” (Nature Communications, 2018)

How the values were obtained:
Experiment in all cases: SelectScreen kinase panel
Assay type in all cases: biochemical
PAK4 = molecular target: T1, PAK4 (Homo sapiens, UniProt O96013)
T1 construct: purchased Invitrogen / ThermoFisher SelectScreen
How it was run: (§1)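 Invitrogen carries out the selectivity screen with its SelectScreen platform, applying either activity assays (Z′-LYTE peptide phosphorylation, Adapta ADP measurement) or a LanthaScreen ATP-pocket binding assay, per kinase. Results are averaged % inhibition.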

CamKIV = molecular target: T2, CamKIV (Homo sapiens, UniProt Q16566)
T2 construct: purchased Invitrogen / ThermoFisher SelectScreen
How it was run: as §1

MKNK1 = molecular target: T3, MKNK1 (Homo sapiens, UniProt Q9BUB5)
T3 construct: purchased Invitrogen / ThermoFisher SelectScreen
How it was run: as §1

ErbB2 = molecular target: T4, ErbB2 (Homo sapiens, UniProt P04626)
T4 construct: purchased Invitrogen / ThermoFisher SelectScreen
How it was run: as §1

PKC_eta = molecular target: T5, PKC_eta (Homo sapiens, UniProt P24723)
T5 construct: purchased Invitrogen / ThermoFisher SelectScreen
How it was run: as §1

CK1_gamma1 = molecular target: T6, CK1_gamma1 (Homo sapiens, UniProt Q9HCP0)
T6 construct: purchased Invitrogen / ThermoFisher SelectScreen
How it was run: as §1

CDK7/cyclinH = molecular target: T7, CDK7/cyclinH (Homo sapiens, UniProt P50613)
T7 construct: purchased Invitrogen / ThermoFisher SelectScreen
How it was run: as §1

EphA8 = molecular target: T8, EphA8 (Homo sapiens, UniProt P29322)
T8 construct: purchased Invitrogen / ThermoFisher SelectScreen
How it was run: as §1

PKD2 = molecular target: T9, PKD2 (Homo sapiens, UniProt Q9BZL6)
T9 construct: purchased Invitrogen / ThermoFisher SelectScreen
How it was run: as §1

PIM1 = molecular target: T10, PIM1 (Homo sapiens, UniProt P11309)
T10 construct: purchased Invitrogen / ThermoFisher SelectScreen
How it was run: as §1

AKT1 = molecular target: T11, AKT1 (Homo sapiens, UniProt P31749)
T11 construct: purchased Invitrogen / ThermoFisher SelectScreen
How it was run: as §1

CK1_delta = molecular target: T12, CK1_delta (Homo sapiens, UniProt P48730)
T12 construct: purchased Invitrogen / ThermoFisher SelectScreen
How it was run: as §1

Srm = molecular target: T13, Srm (Homo sapiens, UniProt Q9H3Y6)
T13 construct: purchased Invitrogen / ThermoFisher SelectScreen
How it was run: as §1

CLK3 = molecular target: T14, CLK3 (Homo sapiens, UniProt P49761)
T14 construct: purchased Invitrogen / ThermoFisher SelectScreen
How it was run: as §1

PDGFR_alpha = molecular target: T15, PDGFR_alpha (Homo sapiens, UniProt P16234)
T15 construct: purchased Invitrogen / ThermoFisher SelectScreen
How it was run: as §1

Lck = molecular target: T16, Lck (Homo sapiens, UniProt P06239)
T16 construct: purchased Invitrogen / ThermoFisher SelectScreen
How it was run: as §1

PKD_delta = molecular target: T17, PKD_delta (Homo sapiens, UniProt Q05655)
T17 construct: purchased Invitrogen / ThermoFisher SelectScreen
How it was run: as §1

ROCK1 = molecular target: T18, ROCK1 (Homo sapiens, UniProt Q13464)
T18 construct: purchased Invitrogen / ThermoFisher SelectScreen
How it was run: as §1

CK2_alpha1 = molecular target: T19, CK2_alpha1 (Homo sapiens, UniProt P68400)
T19 construct: purchased Invitrogen / ThermoFisher SelectScreen
How it was run: as §1

Aurora_B = molecular target: T20, Aurora_B (Homo sapiens, UniProt Q96GD4)
T20 construct: purchased Invitrogen / ThermoFisher SelectScreen
How it was run: as §1

CK1_epsilon1 = molecular target: T21, CK1_epsilon1 (Homo sapiens, UniProt P49674)
T21 construct: purchased Invitrogen / ThermoFisher SelectScreen
How it was run: as §1

ZIPK = molecular target: T22, ZIPK (Homo sapiens, UniProt O43293)
T22 construct: purchased Invitrogen / ThermoFisher SelectScreen
How it was run: as §1

PAK1 = molecular target: T23, PAK1 (Homo sapiens, UniProt Q13153)
T23 construct: purchased Invitrogen / ThermoFisher SelectScreen
How it was run: as §1

FGFR4 = molecular target: T24, FGFR4 (Homo sapiens, UniProt P22455)
T24 construct: purchased Invitrogen / ThermoFisher SelectScreen
How it was run: as §1

Fes = molecular target: T25, Fes (Homo sapiens, UniProt P07332)
T25 construct: purchased Invitrogen / ThermoFisher SelectScreen
How it was run: as §1

DAPK1 = molecular target: T26, DAPK1 (Homo sapiens, UniProt P53355)
T26 construct: purchased Invitrogen / ThermoFisher SelectScreen
How it was run: as §1

ZAP-70 = molecular target: T27, ZAP-70 (Homo sapiens, UniProt P43403)
T27 construct: purchased Invitrogen / ThermoFisher SelectScreen
How it was run: as §1

BTK = molecular target: T28, BTK (Homo sapiens, UniProt Q06187)
T28 construct: purchased Invitrogen / ThermoFisher SelectScreen
How it was run: as §1

PKC-epsilon = molecular target: T29, PKC-epsilon (Homo sapiens, UniProt Q02156)
T29 construct: purchased Invitrogen / ThermoFisher SelectScreen
How it was run: as §1

JAK3 = molecular target: T30, JAK3 (Homo sapiens, UniProt P52333)
T30 construct: purchased Invitrogen / ThermoFisher SelectScreen
How it was run: as §1

CLK1 = molecular target: T31, CLK1 (Homo sapiens, UniProt P49759)
T31 construct: purchased Invitrogen / ThermoFisher SelectScreen
How it was run: as §1

DYRK3 = molecular target: T32, DYRK3 (Homo sapiens, UniProt O43781)
T32 construct: purchased Invitrogen / ThermoFisher SelectScreen
How it was run: as §1

MRCK_alpha = molecular target: T33, MRCK_alpha (Homo sapiens, UniProt Q5VT25)
T33 construct: purchased Invitrogen / ThermoFisher SelectScreen
How it was run: as §1

T28 sequence (Q06187 whole entry): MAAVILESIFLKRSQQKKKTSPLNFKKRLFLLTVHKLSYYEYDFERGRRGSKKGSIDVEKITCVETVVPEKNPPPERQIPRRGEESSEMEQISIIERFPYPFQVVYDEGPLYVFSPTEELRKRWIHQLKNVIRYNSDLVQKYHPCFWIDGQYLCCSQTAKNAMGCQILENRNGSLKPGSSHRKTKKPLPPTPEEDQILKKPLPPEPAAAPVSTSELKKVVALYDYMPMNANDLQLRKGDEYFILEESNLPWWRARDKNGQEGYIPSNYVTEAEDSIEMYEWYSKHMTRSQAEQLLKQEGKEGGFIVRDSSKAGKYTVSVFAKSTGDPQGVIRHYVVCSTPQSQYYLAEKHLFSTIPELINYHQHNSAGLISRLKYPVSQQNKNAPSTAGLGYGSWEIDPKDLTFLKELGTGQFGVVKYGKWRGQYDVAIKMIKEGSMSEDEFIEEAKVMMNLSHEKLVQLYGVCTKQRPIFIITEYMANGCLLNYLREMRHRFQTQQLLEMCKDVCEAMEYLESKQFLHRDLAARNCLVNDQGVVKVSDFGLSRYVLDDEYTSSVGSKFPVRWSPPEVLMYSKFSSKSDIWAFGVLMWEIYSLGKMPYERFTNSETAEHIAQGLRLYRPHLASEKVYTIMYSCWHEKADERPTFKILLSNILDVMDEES
T5 sequence (P24723 whole entry): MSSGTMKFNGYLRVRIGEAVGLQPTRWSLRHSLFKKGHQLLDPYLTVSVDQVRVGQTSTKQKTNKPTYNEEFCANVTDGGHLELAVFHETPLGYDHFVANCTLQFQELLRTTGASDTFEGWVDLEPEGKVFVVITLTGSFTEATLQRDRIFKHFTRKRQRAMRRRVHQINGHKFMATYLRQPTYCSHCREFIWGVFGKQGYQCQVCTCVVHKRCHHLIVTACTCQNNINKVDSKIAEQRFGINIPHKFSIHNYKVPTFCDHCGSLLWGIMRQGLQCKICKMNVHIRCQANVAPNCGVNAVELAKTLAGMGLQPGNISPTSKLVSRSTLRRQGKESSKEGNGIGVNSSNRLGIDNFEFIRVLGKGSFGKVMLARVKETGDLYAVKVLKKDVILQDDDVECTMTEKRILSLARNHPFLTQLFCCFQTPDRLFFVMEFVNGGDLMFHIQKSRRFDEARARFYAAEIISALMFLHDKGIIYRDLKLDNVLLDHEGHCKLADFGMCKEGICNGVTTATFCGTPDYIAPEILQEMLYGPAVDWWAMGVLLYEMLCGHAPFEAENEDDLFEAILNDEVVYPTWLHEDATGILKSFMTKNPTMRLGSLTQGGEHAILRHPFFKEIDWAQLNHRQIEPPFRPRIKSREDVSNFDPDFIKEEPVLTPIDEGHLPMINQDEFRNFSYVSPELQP
T22 sequence (O43293 whole entry): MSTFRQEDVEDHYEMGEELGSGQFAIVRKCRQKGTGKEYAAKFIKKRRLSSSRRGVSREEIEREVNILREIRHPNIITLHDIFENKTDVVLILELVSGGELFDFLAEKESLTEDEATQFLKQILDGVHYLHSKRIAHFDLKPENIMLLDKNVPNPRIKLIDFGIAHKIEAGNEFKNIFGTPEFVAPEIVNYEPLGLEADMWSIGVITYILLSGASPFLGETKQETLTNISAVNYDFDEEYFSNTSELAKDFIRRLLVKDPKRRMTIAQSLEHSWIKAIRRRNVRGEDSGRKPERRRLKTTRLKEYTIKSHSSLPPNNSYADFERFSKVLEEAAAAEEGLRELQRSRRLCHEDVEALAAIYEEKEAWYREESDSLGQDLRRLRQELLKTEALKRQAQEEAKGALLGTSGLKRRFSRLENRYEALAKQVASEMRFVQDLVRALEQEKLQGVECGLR
T25 sequence (P07332 whole entry): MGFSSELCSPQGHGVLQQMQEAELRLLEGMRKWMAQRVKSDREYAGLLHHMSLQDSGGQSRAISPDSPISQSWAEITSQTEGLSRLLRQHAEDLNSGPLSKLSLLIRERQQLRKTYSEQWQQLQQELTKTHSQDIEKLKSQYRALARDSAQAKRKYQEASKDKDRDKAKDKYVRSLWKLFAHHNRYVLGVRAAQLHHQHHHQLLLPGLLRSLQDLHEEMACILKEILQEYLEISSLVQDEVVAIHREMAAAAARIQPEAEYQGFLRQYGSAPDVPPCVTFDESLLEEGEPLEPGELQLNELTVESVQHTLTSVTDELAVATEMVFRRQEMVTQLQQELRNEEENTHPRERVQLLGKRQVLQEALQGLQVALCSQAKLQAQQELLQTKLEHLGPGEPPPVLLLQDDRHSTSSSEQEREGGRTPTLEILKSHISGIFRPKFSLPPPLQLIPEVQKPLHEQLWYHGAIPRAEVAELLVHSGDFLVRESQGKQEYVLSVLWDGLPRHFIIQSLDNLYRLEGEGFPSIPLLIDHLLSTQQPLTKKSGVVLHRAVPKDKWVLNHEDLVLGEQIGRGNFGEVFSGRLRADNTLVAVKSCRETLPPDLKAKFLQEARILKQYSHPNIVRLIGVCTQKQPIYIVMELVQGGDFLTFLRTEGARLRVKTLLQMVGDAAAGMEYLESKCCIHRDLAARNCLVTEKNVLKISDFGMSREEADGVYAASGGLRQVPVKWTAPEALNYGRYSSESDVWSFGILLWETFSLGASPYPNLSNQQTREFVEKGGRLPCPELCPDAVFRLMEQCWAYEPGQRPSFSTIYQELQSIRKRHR
T13 sequence (Q9H3Y6 whole entry): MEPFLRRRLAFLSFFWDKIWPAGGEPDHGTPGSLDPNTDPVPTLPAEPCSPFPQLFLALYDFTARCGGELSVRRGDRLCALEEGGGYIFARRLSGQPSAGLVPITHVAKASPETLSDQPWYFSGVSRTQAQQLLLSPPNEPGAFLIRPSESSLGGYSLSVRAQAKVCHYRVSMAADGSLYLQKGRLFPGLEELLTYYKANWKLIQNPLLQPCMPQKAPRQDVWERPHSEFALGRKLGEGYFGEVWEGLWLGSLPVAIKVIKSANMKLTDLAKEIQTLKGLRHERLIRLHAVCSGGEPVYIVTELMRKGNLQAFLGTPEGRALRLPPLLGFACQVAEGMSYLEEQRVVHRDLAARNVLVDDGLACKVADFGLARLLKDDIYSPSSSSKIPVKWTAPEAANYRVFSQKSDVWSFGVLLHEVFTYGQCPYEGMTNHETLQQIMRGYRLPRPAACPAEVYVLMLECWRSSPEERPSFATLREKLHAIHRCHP
T15 sequence (P16234 24-1089): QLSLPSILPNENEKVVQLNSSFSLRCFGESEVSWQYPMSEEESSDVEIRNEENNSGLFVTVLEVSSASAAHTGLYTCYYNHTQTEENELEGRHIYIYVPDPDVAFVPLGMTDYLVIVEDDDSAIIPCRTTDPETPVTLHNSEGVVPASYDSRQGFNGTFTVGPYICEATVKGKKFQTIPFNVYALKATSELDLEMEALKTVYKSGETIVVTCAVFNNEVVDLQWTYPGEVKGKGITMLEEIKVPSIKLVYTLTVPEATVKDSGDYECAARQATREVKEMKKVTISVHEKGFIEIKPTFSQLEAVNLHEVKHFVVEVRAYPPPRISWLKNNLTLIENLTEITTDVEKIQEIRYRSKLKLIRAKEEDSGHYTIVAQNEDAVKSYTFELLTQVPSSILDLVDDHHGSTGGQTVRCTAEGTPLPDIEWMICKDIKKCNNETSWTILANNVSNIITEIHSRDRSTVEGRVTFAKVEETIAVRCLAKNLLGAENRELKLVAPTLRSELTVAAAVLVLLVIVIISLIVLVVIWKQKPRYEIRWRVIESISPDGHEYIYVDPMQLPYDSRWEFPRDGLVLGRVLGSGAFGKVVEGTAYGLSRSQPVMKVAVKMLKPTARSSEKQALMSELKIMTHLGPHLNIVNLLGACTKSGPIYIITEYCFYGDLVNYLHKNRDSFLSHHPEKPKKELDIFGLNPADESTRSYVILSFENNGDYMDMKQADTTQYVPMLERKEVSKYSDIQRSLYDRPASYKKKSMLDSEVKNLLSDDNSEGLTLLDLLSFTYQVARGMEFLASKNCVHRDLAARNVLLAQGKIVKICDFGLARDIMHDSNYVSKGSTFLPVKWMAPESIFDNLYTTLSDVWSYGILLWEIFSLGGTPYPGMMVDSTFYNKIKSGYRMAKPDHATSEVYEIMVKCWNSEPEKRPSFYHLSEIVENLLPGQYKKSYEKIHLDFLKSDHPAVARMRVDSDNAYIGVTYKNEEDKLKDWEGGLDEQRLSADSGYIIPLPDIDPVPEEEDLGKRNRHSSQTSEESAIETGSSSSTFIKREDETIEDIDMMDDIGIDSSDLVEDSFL
T19 sequence (P68400 whole entry): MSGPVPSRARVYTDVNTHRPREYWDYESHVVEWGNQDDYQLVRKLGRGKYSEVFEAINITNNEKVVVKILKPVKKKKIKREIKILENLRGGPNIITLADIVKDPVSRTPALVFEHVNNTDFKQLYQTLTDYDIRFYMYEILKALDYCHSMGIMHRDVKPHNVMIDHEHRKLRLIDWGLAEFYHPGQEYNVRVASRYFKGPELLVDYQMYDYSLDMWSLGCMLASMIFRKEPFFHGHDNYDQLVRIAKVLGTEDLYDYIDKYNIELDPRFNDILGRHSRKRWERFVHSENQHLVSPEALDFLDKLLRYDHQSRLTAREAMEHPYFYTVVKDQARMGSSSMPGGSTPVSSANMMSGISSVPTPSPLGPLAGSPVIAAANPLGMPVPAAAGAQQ
T6 sequence (Q9HCP0 whole entry): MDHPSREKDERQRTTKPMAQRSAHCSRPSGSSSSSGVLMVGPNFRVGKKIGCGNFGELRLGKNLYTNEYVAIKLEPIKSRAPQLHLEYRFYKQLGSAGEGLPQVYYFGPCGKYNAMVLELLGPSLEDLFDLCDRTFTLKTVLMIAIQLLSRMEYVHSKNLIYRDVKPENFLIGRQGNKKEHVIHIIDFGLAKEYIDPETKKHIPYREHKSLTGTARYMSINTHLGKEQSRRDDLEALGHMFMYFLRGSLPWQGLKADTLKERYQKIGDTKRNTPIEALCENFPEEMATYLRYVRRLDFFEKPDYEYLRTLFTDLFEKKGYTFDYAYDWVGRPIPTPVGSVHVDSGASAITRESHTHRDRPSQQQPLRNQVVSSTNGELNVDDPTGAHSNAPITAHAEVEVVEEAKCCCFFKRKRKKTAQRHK

COc1cc(C(N)=O)nc(-c2cccc(C#C[C@]3(O)CCN(C)C3=O)c2)c1 [NIK SMI1]
inhibition at 1 µM (PAK4): 64% | inhibition at 1 µM (CamKIV): 14.5% | inhibition at 1 µM (MKNK1): 2% | inhibition at 1 µM (ErbB2): -1.5% | inhibition at 1 µM (PKC_eta): 38% | inhibition at 1 µM (CK1_gamma1): 2.5% | inhibition at 1 µM (CDK7/cyclinH): -5.5% | inhibition at 1 µM (EphA8): -3.5% | inhibition at 1 µM (PKD2): 0% | inhibition at 1 µM (PIM1): -0.5% | inhibition at 1 µM (AKT1): 28.5% | inhibition at 1 µM (CK1_delta): -4.5% | inhibition at 1 µM (Srm): 12% | inhibition at 1 µM (CLK3): 14.5% | inhibition at 1 µM (PDGFR_alpha): -4.5% | inhibition at 1 µM (Lck): 0.5% | inhibition at 1 µM (PKD_delta): 1.5% | inhibition at 1 µM (ROCK1): 9.5% | inhibition at 1 µM (CK2_alpha1): 4.5% | inhibition at 1 µM (Aurora_B): 24.5% | inhibition at 1 µM (CK1_epsilon1): 6.5% | inhibition at 1 µM (ZIPK): -5.5% | inhibition at 1 µM (PAK1): 9% | inhibition at 1 µM (FGFR4): 7.5% | inhibition at 1 µM (Fes): 20.5% | inhibition at 1 µM (DAPK1): 15.1% | inhibition at 1 µM (ZAP-70): 17% | inhibition at 1 µM (BTK): -3% | inhibition at 1 µM (PKC-epsilon): 2% | inhibition at 1 µM (JAK3): 15% | inhibition at 1 µM (CLK1): 4.5% | inhibition at 1 µM (DYRK3): 1.5% | inhibition at 1 µM (MRCK_alpha): 0.5%
